# Assay results reported in patent publication US20080155704A1, “Methods and Compositions for Determining in vivo Activity of BiP” (King's College London, priority 2006, published 2008).
# Key:
# Type in all cases: cell-based, human
# [1] = tested on: allogeneic T cells; assay: Allogeneic proliferative response to early BiP treated DC (tritiated thymidine uptake); details: DC differentiated with BiP 20 μg/ml
# Experimental: Allogeneic responses by T cells in culture with irradiated (3,000 rads) early DC (eDC), after only 3d in culture with GM-CSF and IL-4 in the presence or absence of BiP (20 μg/ml) at a ratio of 10:1 PBMC:DC (105:10^4 cells/well). The results are shown as an allogeneic proliferative response (A) following addition of neutralizing anti-IL-10 ( 1/100 dilution) antibody and (B) the pre-treatment (2 h) of monocytes (MO) with p38 inhibitor, SB203580 (SB)(10 μM) or the ERK1/2 inhibitor, PD 98059 (PD)(10 μM), prior to the addition of GM-CSF and IL-4 to the cultures. The proliferation of PBMC to early DC following (C) the addition of BiP 24 h post addition of GM-CSF and IL-4. Proliferation was measured by uptake of tritiated thymidine and recorded as counts per minute (cpm). ELISA was used to detect IL-10 (D) in the culture supernatants and (E) by 7d cultured iDC/iDC(BiP) and fully matured mDC/mDC(BiP) differentiated as described in following 7d culture in GM-CSF and IL-4 with LPS (500 ng/ml) added for the final 2d.
# (§1) To neutralize IL-10 within the cultures anti-IL-10 antibody (ATCC, Rockville, USA) was added at day 0 (5 μg/ml) to GM-CSF and IL-4 treated cultures in the presence and absence of BiP (20 μg/ml). Two specific cell-permeable inhibitors of the MAPK intracellular signalling pathways were used. SB203580 (SB)(10 μM)((Calbiochem, Darmstadt, Germany) inhibits p38 MAPK, and PD98059 (PD) (10 μM)(Calbiochem), an inhibitor of MAPK extracellular signal regulated kinase (ERK), were tested. MO were pre-treated with the inhibitors for 2 h before adding GM-CSF and IL-4 in the presence or absence of BiP.
# [2] = tested on: IL-8; assay: IL-8 production by dendritic cells (cytometric bead array); details: iDC and mDC, BiP 20 μg/ml, 7d culture (FIG. 7)
# Excerpt: In a series of experiments IL-8 was detected using cytometric bead array (Becton Dickinson) where the mean fluorescence intensity (MFI) is proportional to the concentration of cytokine.
# [3] = tested on: IL-10; assay: IL-10 production by dendritic cell cultures (ELISA); details: for IL-10 production: n=8
# Experimental: (§2) Supernatant samples were collected on day 1, 3 and 7 for iDC and from the final cultures of the T cells taken from the iDC/mDC-T cell allogeneic test system and set up with autologous cells to determine if there was any regulatory activity. The samples were aliquoted and frozen at −70° C. until required. Production IL-10 was quantified by ELISA using paired antibodies and recombinant standards (PharMingen, Oxford, UK) according to the recommendations of the manufacturer. In addition some were analysed by cytometric bead assay (BD, Oxford, UK) according to the manufacturers instructions.
# as §1
# as §2, with “of the pro-inflammatory cytokine, TNFα, and the anti-inflammatory cytokine, IL-10,” for “IL-10”
substance,measurement,setting,value
BiP: 78 kD endoplasmic reticulum chaperone protein as disclosed in WO 00/21995; recombinant human protein,proliferation of allogeneic T cells stimulated by iDC(BiP) or mDC(BiP),[1],significantly reduced proliferation
same,IL-8 production (MFI) in culture supernatants,[2],suppressed IL-8 production
same,IL-10 production by early DC(BiP) cultures,"[3]; 3d GM-CSF and IL-4 with BiP 20 μg/ml, inhibitors 10 μM, anti-IL-10 added at day 0 (FIG. 13D)",significantly more IL-10
same,IL-10 production,"[3]; iDC(BiP), 7d culture",819.1 ± 688 pg/mL
same,IL-10 production,"[3]; mDC(BiP), 7d culture with LPS final 2d",970.1 ± 684 pg/mL
same,IL-10 production by BiP-treated DC,[3]; versus untreated DC (FIG. 1),significantly more IL-10
